Where no end group is shown, it is not given here. [ ]: non-standard residue; d: D form. Nva = CCC[C@H](N)C(=O)O
Tests used:
Type in all cases: in vivo, mouse
D2.mdx mice [1] = assay: Muscle cytokine mRNA by quantitative PCR
Method: (§1) D2.mdx mice were treated with ALY688 at two different dosages; high dose (HD; 15 mg/kg body weight/day) or low dose (LD; 3 mg/kg body weight/day) dissolved in saline. A separate group of mice were treated with saline alone (VEH, vehicle). Treatment was provided via subscapular subcutaneous injections from 7 days of age to 28-30 days. […] At 28-30 days of age, mice were anaesthetized with isoflurane vaporized in medical air (21% oxygen) at a 2 L/min flow rate. Due to tissue limitations in limb muscle, certain measures were performed separately in tibialis anterior and quadriceps across several phases of breeding. Following the treatment protocol, in situ quadriceps force assessments were then performed in one limb followed by removal of the quadriceps from the other limb for mitochondrial assessments, diaphragm for in vitro force assessments and finally other tissues for further processing as described below. Muscle and visceral organs weights were normalized to tibia length. Tissue collected from the first phase were utilized in force, histological, mitochondrial measures (respiration, mH2O2 and calcium retention capacity) and western analyses (diaphragm and quadriceps only). A second phase was then collected and utilized for cytokine profiling, qPCR analyses and additional westerns (TA only). Serum was collected from both phase 1 and 2 and utilized for serum CK analysis. All animals were utilized in in vivo functional assays (grip strength, cage hang time and voluntary wheel running).
Samples were lysed using TRIzol reagent and RNA was separated to aqueous phase using chloroform. The aqueous layer containing RNA was then mixed with isopropanol and loaded to Aurum Total RNA Mini Kit columns (Bio-Rad, Mississauga, ON, Canada). Total RNA was then extracted according to the manufacturer's instructions and concentration was assessed on the nanodrop attachment for the Varioskan LUX Multimode Microplate reader (Thermo Scientific). Reverse transcription of RNA into cDNA was performed by M-MLV reverse transcriptase and oligo (dT) primers (Qiagen). cDNA was then amplified in a CFX384 Touch Real-Time PCR Detection Systems (Bio-Rad) with a SYBR Green master mix and specific primers. Standard curves were created by plotting log DNA concentrations against Ct values from a 1:5 serial dilutions with CFX Manager Software. Gene expression was normalized to a Rplp0 control, and relative differences were determined using the ΔΔCt method Values are presented as fold increases relative to WT group.

D2.mdx mice [2] = assay: H&E staining, damaged areas of muscle
Method: D2.mdx mice were treated with ALY688 at two different dosages; high dose (HD; 15 mg/kg body weight/day) or low dose (LD; 3 mg/kg body weight/day) dissolved in saline. A separate group of mice were treated with saline alone (VEH, vehicle). Treatment was provided via subscapular subcutaneous injections from 7 days of age to 28-30 days. […] At 28-30 days of age, mice were anaesthetized with isoflurane vaporized in medical air (21% oxygen) at a 2 L/min flow rate. Due to tissue limitations in limb muscle, certain measures were performed separately in tibialis anterior and quadriceps across several phases of breeding. […]
Samples collected were cut into 8 µm thick serial cross sections with a cryostat (Thermo Fisher Scientific; Kalamazoo, MI, United States;) maintained at −20° C. on Fisherbrand Superfrost Plus slides (Thermo Fisher Scientific). […] Centralized nuclei, a marker of regenerating fibres, was analyzed by selecting five evenly spaced images throughout the muscle and averaging the result. Areas of damage (fibres with fragmented sarcoplasm and immune cell infiltration) were expressed as a percentage of the entire muscle section. Images were taken using EVOS M7000 imager (Thermo Fisher Scientific) using 20× magnification and analyzed using ImageJ (http://imagej.nih.gov/ij/). […] These images were then analyzed with ImageJ for minimal Feret's diameter as an index of muscle atrophy.

D2.mdx mice [3] = assay: Fibre-type specific minimal Feret's diameter (muscle atrophy), myosin heavy chain immunofluorescence
Method: as §1
Samples collected were cut into 8 µm thick serial cross sections with a cryostat (Thermo Fisher Scientific; Kalamazoo, MI, United States;) maintained at −20° C. on Fisherbrand Superfrost Plus slides (Thermo Fisher Scientific). Hematoxylin and eosin (H&E) and Masson's trichrome staining was used to assess muscle health and fibrosis. Centralized nuclei, a marker of regenerating fibres, was analyzed by selecting five evenly spaced images throughout the muscle and averaging the result. Areas of damage (fibres with fragmented sarcoplasm and immune cell infiltration) were expressed as a percentage of the entire muscle section. Images were taken using EVOS M7000 imager (Thermo Fisher Scientific) using 20× magnification and analyzed using ImageJ (http://imagej.nih.gov/ij/). To determine fibrotic area, skeletal muscle sections were stained with Masson's Trichrome (fibrotic regions stain blue for collagen) and expressed as a percentage of a region of interest, which included the entire muscle section with any artifacts removed. Sections were imaged Nikon 90i-eclipse microscope (Nikon Inc., Melville, NY) and analysed with the NIS Elements AR software (v4.6, Nikon). […] These images were then analyzed with ImageJ for minimal Feret's diameter as an index of muscle atrophy.

D2.mdx mice [4] = assay: Chamber-specific cardiac fibrosis, histopathological assessment
Method: D2.mdx mice were treated daily subcutaneously beginning at 7 days of age for 3 weeks at 1 μL/g with ALY688 at 15 mg/kg body weight (high dose drug; HD) or with a saline (VEH) control. Mice were compared to age-matched wildtypes (DBA/2J). […] However, ADP-stimulated respiration supported by pyruvate was increased in VEH (36%) and HD (46%) vs wildtype whereas HD had no effect vs VEH.

[dN]IP[Nva]LY[dS]FA[dS]-NH2 [ALY688]
IL-10 mRNA content (D2.mdx mice [1]; diaphragm, HD): not different between groups | TGF-β mRNA contents (D2.mdx mice [1]; diaphragm, HD): unchanged in all groups | TNF-α mRNA content (D2.mdx mice [1]; diaphragm, HD): not different between groups | IL-1β mRNA (D2.mdx mice [1]; diaphragm, HD vs VEH): not affected by the drug | IL-6 mRNA content (D2.mdx mice [1]; diaphragm, HD, increase in VEH attenuated): 51.8 % increase vs WT | attenuation of TNF-α mRNA compared to VEH (D2.mdx mice [1]; tibialis anterior, HD): 41.4% | damaged areas (H&E) (D2.mdx mice [2]; diaphragm, all D2.mdx groups (VEH, LD, HD)): 3.7-to-3.9 fold change vs WT | damaged areas (H&E) (D2.mdx mice [2]; tibialis anterior, all three D2.mdx groups): 17.2-to-22.6 fold increase vs WT | atrophy in MHC I fibers (minimal feret diameter) (D2.mdx mice [3]; diaphragm, HD 15 mg/kg/day): completely prevented atrophy | minimal feret diameter, IIA fibers (D2.mdx mice [3]; diaphragm, HD, WT 24, VEH 20): 22 μm | minimal feret diameter, IIB fibers (D2.mdx mice [3]; diaphragm, HD, WT 26, VEH 23): 24 μm | minimal feret diameter in any fiber type (D2.mdx mice [3]; tibialis anterior, between the groups): no differences | left atrial fibrosis (D2.mdx mice [4]; HD 15 mg/kg s.c. daily for 3 weeks from 7 days of age): completely rescued | right ventricular (RV) fibrosis (D2.mdx mice [4]; HD 15 mg/kg s.c. daily for 3 weeks, VEH +385%): completely rescued

— patent US20240382564A1, “Methods and Compositions for Treating Muscular Dystrophy and Memory Impairment” (Allysta Pharmaceuticals, Inc., priority 2023, published 2024)
